Experimental data published in publication PMC5243837, “The Effect of Selective D- or N^α-Methyl Arginine Substitution on the Activity of the Proline-Rich Antimicrobial Peptide, Chex1-Arg20” (Frontiers in Chemistry, 2017).
Where two headings read alike, the source gives them in different places. Where a SMILES comes first, the peptide text is derived from it. [ ]: non-standard residue; d: D form. NMeR = CN[C@@H](CCCNC(=N)N)C(=O)O; Ac6c = NC1(C(=O)O)CCCCC1; Chex = not defined here

How the values were obtained:
[1] = system: K. pneumoniae ATCC 13883; conditions: previously reported, ref Li et al., 2015b; cited from earlier work
Text: Table 2 Antibacterial activity, MIC (μM), of Chex1-Arg20 analogs against Gram-negative pathogen K. pneumoniae ATCC 13883. | column: 1^^*

[2] = cited from earlier work
[3] = system: K. pneumoniae ATCC 13883; type: cell-based, Klebsiella pneumoniae; conditions: for Antibacterial activity, MIC: ATCC 13883; for Antibacterial activity against K. pneumoniae (in words): K. pneumoniae ATCC 13883 in MHB, compared with analog 1, Chex1-Arg20
Method: An antibacterial assay was undertaken to determine the minimal inhibitory concentration (MIC) as described previously (Li et al., [2015b]). The Gram-negative nosocomial bacterium, K. pneumoniae ATCC13883, was selected for testing the antibacterial activities of the Chex1-Arg20 analogs using 2.5 × 10^5 cells/ml in Mueller Hinton broth (MHB) at 37°C immediately prior to the determination of MIC.
Each Chex1-Arg20 analog was assayed against the nosocomial Gram-negative bacterium K. pneumoniae ATCC 13883. The results are shown in Table 2 in comparison with analog 1, Chex1-Arg20. […] This highlighted the importance of arginine-7 and its native L-configuration for characteristic antimicrobial activity.

| Molecule | Antibacterial activity, MIC [1] [µM] | Degradation sites in vivo [2] | Antibacterial activity, MIC [3] [µM] | Antibacterial activity against K. pneumoniae (in words) [3] |
| --- | --- | --- | --- | --- |
| Chex1-Arg20 (Chex-RPDKPRPYLPRPRPPRPVR-NH2; reading uncertain) [analog 1, de novo designed proline-rich antimicrobial peptide, Chex-…-NH2] | 0.8 ± 0.1 |  |  |  |
| A3-APO |  | degradation at positions Pro6-Arg7 and Val19-Arg20 |  |  |
| CC(C)C[C@H](NC(=O)[C@@H]1CCCN1C(=O)[C@H](CCCNC(=N)N)NC(=O)[C@@H]1CCCN1C(=O)[C@H](CCCNC(=N)N)NC(=O)[C@@H]1CCCN1C(=O)[C@@H]1CCCN1C(=O)[C@H](CCCNC(=N)N)NC(=O)[C@@H]1CCCN1C(=O)[C@@H](NC(=O)[C@H](CCCNC(=N)N)NC(=O)C1(N)CCCCC1)C(C)C)C(=O)N[C@@H](Cc1ccc(O)cc1)C(=O)N1CCC[C@H]1C(=O)N[C@@H](CCCNC(=N)N)C(=O)N1CCC[C@H]1C(=O)N[C@@H](CCCCN)C(=O)N[C@@H](CC(=O)O)C(=O)N1CCC[C@H]1C(=O)N[C@@H](CCCNC(=N)N)C(N)=O [analog 8, reverse] (H-[Ac6c]RVPRPPRPRPLYPRPKDPR-NH2; N-terminus assumed) |  |  | >100 | no activity |
| CC(C)C[C@H](NC(=O)[C@H](Cc1ccc(O)cc1)NC(=O)[C@@H]1CCCN1C(=O)[C@@H](CCCNC(=N)N)NC(=O)[C@@H]1CCCN1C(=O)[C@H](CCCCN)NC(=O)[C@H](CC(=O)O)NC(=O)[C@@H]1CCCN1C(=O)[C@H](CCCNC(=N)N)NC(=O)C1(N)CCCCC1)C(=O)N1CCC[C@H]1C(=O)N[C@@H](CCCNC(=N)N)C(=O)N1CCC[C@H]1C(=O)N[C@@H](CCCNC(=N)N)C(=O)N1CCC[C@H]1C(=O)N1CCC[C@H]1C(=O)N[C@@H](CCCNC(=N)N)C(=O)N1CCC[C@H]1C(=O)N[C@H](C(=O)N[C@@H](CCCNC(=N)N)C(N)=O)C(C)C [analog 2, DR7] (H-[Ac6c]RPDKP[dR]PYLPRPRPPRPVR-NH2; N-terminus assumed) |  |  | >100 | substantial loss of activity |
| CC(C)C[C@H](NC(=O)[C@H](Cc1ccc(O)cc1)NC(=O)[C@@H]1CCCN1C(=O)[C@H](N)CCCNC(=N)N)C(=O)N1CCC[C@H]1C(=O)N[C@@H](CCCNC(=N)N)C(=O)N1CCC[C@H]1C(=O)N[C@@H](CCCNC(=N)N)C(=O)N1CCC[C@H]1C(=O)N1CCC[C@H]1C(=O)N[C@@H](CCCNC(=N)N)C(=O)N1CCC[C@H]1C(=O)N[C@H](C(N)=O)C(C)C [analog 4, DR7(7–19)] (H-[dR]PYLPRPRPPRPV-NH2; N-terminus assumed) |  |  | >100 | no antibacterial activity |
| CC(C)C[C@H](NC(=O)[C@H](Cc1ccc(O)cc1)NC(=O)[C@@H]1CCCN1C(=O)[C@H](CCCNC(=N)N)NC(=O)[C@@H]1CCCN1C(=O)[C@H](CCCCN)NC(=O)[C@H](CC(=O)O)NC(=O)[C@@H]1CCCN1C(=O)[C@H](CCCNC(=N)N)NC(=O)C1(N)CCCCC1)C(=O)N1CCC[C@H]1C(=O)N[C@@H](CCCNC(=N)N)C(=O)N1CCC[C@H]1C(=O)N[C@@H](CCCNC(=N)N)C(=O)N1CCC[C@H]1C(=O)N1CCC[C@H]1C(=O)N[C@@H](CCCNC(=N)N)C(=O)N1CCC[C@H]1C(=O)N[C@H](C(=O)N[C@H](CCCNC(=N)N)C(N)=O)C(C)C [analog 6, DR20] (H-[Ac6c]RPDKPRPYLPRPRPPRPV[dR]-NH2; N-terminus assumed) |  |  | 11.8 ± 0.1 |  |
| CC(C)C[C@H](NC(=O)[C@H](Cc1ccc(O)cc1)NC(=O)[C@@H]1CCCN1C(=O)[C@H](CCCNC(=N)N)NC(=O)[C@@H]1CCCN1C(=O)[C@H](CCCCN)NC(=O)[C@H](CC(=O)O)NC(=O)[C@@H]1CCCN1C(=O)[C@H](CCCNC(=N)N)NC(=O)C1(N)CCCCC1)C(=O)N1CCC[C@H]1C(=O)N[C@@H](CCCNC(=N)N)C(=O)N1CCC[C@H]1C(=O)N[C@@H](CCCNC(=N)N)C(=O)N1CCC[C@H]1C(=O)N1CCC[C@H]1C(=O)N[C@@H](CCCNC(=N)N)C(=O)N1CCC[C@H]1C(=O)N[C@H](C(=O)N(C)[C@@H](CCCNC(=N)N)C(N)=O)C(C)C [analog 7, mR20] (H-[Ac6c]RPDKPRPYLPRPRPPRPV[NMeR]-NH2; N-terminus assumed) |  |  | 14.5 ± 0.1 |  |
| CC(C)C[C@H](NC(=O)[C@H](Cc1ccc(O)cc1)NC(=O)[C@@H]1CCCN1C(=O)[C@@H](CCCNC(=N)N)NC(=O)[C@@H]1CCCN1C(=O)[C@H](CCCCN)NC(=O)[C@H](CC(=O)O)NC(=O)[C@@H]1CCCN1C(=O)[C@H](CCCNC(=N)N)NC(=O)C1(N)CCCCC1)C(=O)N1CCC[C@H]1C(=O)N[C@@H](CCCNC(=N)N)C(=O)N1CCC[C@H]1C(=O)N[C@@H](CCCNC(=N)N)C(=O)N1CCC[C@H]1C(=O)N1CCC[C@H]1C(=O)N[C@@H](CCCNC(=N)N)C(=O)N1CCC[C@H]1C(=O)N[C@H](C(N)=O)C(C)C [analog 5, Chex1-Val19] (H-[Ac6c]RPDKP[dR]PYLPRPRPPRPV-NH2; N-terminus assumed) |  |  | 36.1 ± 0.6 | partially restored activity |
